For series [1], the system named is Enterovirus A71. The experiment in a line: Antiviral activity against Enterovirus 71 clinical isolate TW/1956/05 infected in human RD cells assessed as cell viability after 3 days by MTS assay. The following applies: Enterovirus A, isolate TW/1956/05, RD, 72 h. It counts as functional, organism-based. On the technique in general: Tetrazolium dyes change colour on reduction, which living cells bring about.

The test system of series [2] is Enterovirus A71. The experiment in a line: Antiviral activity against Enterovirus 71 clinical isolate 11316 infected in human RD cells assessed as cell viability after 3 days by MTS assay. The following applies: Enterovirus A, isolate 11316, RD, 72 h. It is filed as functional, organism-based.
Series [3] concerns Enterovirus A71. The experiment in a line: Antiviral activity against Enterovirus 71 infected in human RD cells assessed as cell viability after 3 days by MTS assay. It is filed as functional, organism-based. The note with it: Enterovirus A, 72 h.
The subject of series [4] is Enterovirus A71. The experiment in a line: Antiviral activity against Enterovirus 71 isolate TW/2429/04 infected in human RD cells assessed as cell viability after 3 days by MTS assay. It is filed as functional, organism-based. The note with it: Enterovirus A, isolate TW/2429/04, RD, 72 h.
In series [5] the test system is Enterovirus A71. The experiment in a line: Antiviral activity against Enterovirus 71 clinical isolate H08300 461#812 infected in human RD cells assessed as cell viability after 3 days by MTS assay. It counts as functional, organism-based. The following applies: Enterovirus A, isolate H08300 461#812, RD, 72 h.
In series [6] the test system is Enterovirus A71. The experiment in a line: Antiviral activity against Enterovirus 71 clinical isolate TW/96016/08 infected in human RD cells assessed as cell viability after 3 days by MTS assay. It counts as functional, organism-based. The note with it: Enterovirus A, isolate TW/96016/08, RD, 72 h.
Series [7] in a line: Selectivity index, ratio of CC50 for human RD cells to EC50 for Enterovirus 71. It counts as toxicity, cell-based. The note with it: read-out: Ratio CC50/EC50.
Series [8] is described as follows: Cytotoxicity against human RD cells. It counts as cell-based.
Series [9] relates to Enterovirus A71. The experiment in a line: Antiviral activity against Enterovirus 71 clinical isolate TW/70902/08 infected in human RD cells assessed as cell viability after 3 days by MTS assay. It is filed as functional, organism-based. The following applies: Enterovirus A, isolate TW/70902/08, RD, 72 h.

pEC50: −log10 of the molar value.

Take `OC[C@H]1O[C@@H](n2cnc3c(NCCc4ccccc4)ncnc32)[C@H](O)[C@@H]1O`: the pEC50 (as a rule, the EC50 on a negative log10 scale, so that one unit is a factor of ten) in the series with Enterovirus A71 [1] is 5.57; in the series on Enterovirus A71 [2], 5.09; in the series on Enterovirus A71 [3] it was 5.74; in the series on Enterovirus A71 [4], 5.43; in the series with Enterovirus A71 [5] it was 5.72; in the series with Enterovirus A71 [6], 5.25. In addition, in the series with Enterovirus A71 [9], the pEC50 was 5.08. In series [7], the selectivity ratio worked out at 123. For the same compound, in series [8], it took 221 µM to reach half-maximal cytotoxicity (CC50).

Turning to `O=C(Nc1ncnc2c1ncn2[C@@H]1O[C@H](CO)[C@@H](O)[C@H]1O)c1ccccc1`, the pEC50 in the series with Enterovirus A71 [3] is 4.92. Also, in series [7], the selectivity ratio is more than 28. Further, the CC50 – broadly, the concentration giving 50% cytotoxicity – in series [8] was more than 337 µM.

In the case of `OC[C@H]1O[C@@H](n2cnc3c(NCCCCc4ccccc4)ncnc32)[C@H](O)[C@@H]1O`, in the series on Enterovirus A71 [3], the pEC50 was less than 3.60. The CC50 in series [8] is more than 313 µM.

With `OC[C@H]1O[C@@H](n2cnc3c(NCCCc4ccccc4)ncnc32)[C@H](O)[C@@H]1O`, the pEC50 in the series on Enterovirus A71 [3] was 5.74. In series [7], the selectivity ratio was 105. Besides, the midpoint of cytotoxicity in series [8], the CC50, lay at 189 µM.

As to `OC[C@H]1O[C@@H](n2cnc3c(OCc4ccccc4)ncnc32)[C@H](O)[C@@H]1O`, the pEC50 with Enterovirus A71 [3] was 5.29. In series [7], the selectivity ratio was 37. Further, the midpoint of cytotoxicity in series [8], the CC50, lay at 191 µM.

Turning to `Cn1cc(CNc2ncnc3c2ncn3[C@@H]2O[C@H](CO)[C@@H](O)[C@H]2O)nn1`, in the series on Enterovirus A71 [3], the pEC50 was less than 3.87. In addition, it took 136 µM to reach half-maximal cytotoxicity in series [8] (CC50).

Turning to `OC[C@H]1O[C@@H](n2cnc3c(OCCc4ccccc4)ncnc32)[C@H](O)[C@@H]1O`, the pEC50 with Enterovirus A71 [3] is less than 5.07. Also, the CC50 in series [8] turned out to be 8.5 µM.

With `OC[C@H]1O[C@@H](n2cnc3c(NCCc4ccccc4)ncnc32)C[C@@H]1O`, in the series on Enterovirus A71 [3], the pEC50 is less than 3.55. In [8], the CC50 is more than 352 µM.

Turning to `O=C(Nc1ncnc2c1ncn2C(CO)OC(CO)CO)c1ccccc1` (stereo unspecified), in the series on Enterovirus A71 [3], the pEC50 is less than 3.47. The same compound displayed a CC50 in series [8] of more than 335 µM.

Turning to `C=CCC#CCNc1ncnc2c1ncn2[C@@H]1O[C@H](CO)[C@@H](O)[C@H]1O`, the pEC50 with Enterovirus A71 [3] was 5.31. Besides, in series [7], the selectivity ratio is more than 88. This compound registered a CC50 in series [8] of more than 434 µM.

In the case of `OC[C@H]1O[C@@H](n2cnc3c(OCCCc4ccccc4)ncnc32)[C@H](O)[C@@H]1O`, in the series with Enterovirus A71 [3], the pEC50 is less than 3.74. The CC50 in series [8] was 182 µM.

As for `OC[C@H]1O[C@@H](n2cnc3c(NCOCc4ccccc4)ncnc32)[C@H](O)[C@@H]1O`, the pEC50 in the series with Enterovirus A71 [3] was 5.52. Also, the selectivity ratio in [7] is 175. This compound came in with a CC50 in series [8] of 525 µM.

Consider `OC[C@H]1O[C@@H](n2cnc3c(NCCCOc4ccccc4)ncnc32)[C@H](O)[C@@H]1O`, for which, in the series on Enterovirus A71 [3], the pEC50 was less than 3.51. The compound further registered a CC50 in [8] of more than 311 µM.

With `OC[C@H]1O[C@@H](n2cnc3c(NCCOc4ccccc4)ncnc32)C[C@@H]1O`, the pEC50 in the series on Enterovirus A71 [3] was less than 3.87. Besides, the CC50 in [8] was more than 337 µM.

On to `OC[C@H]1O[C@@H](n2cnc3c(NCCCc4ccccc4)ncnc32)C[C@@H]1O`, for which the pEC50 in the series on Enterovirus A71 [3] is less than 3.57. Moreover, the CC50 in series [8] was more than 271 µM.

As for `OC[C@H]1O[C@@H](n2cnc3c(NCc4ccccc4)ncnc32)C[C@@H]1O`, in the series on Enterovirus A71 [3], the pEC50 was less than 3.84. The compound also gave a CC50 in series [8] of more than 366 µM.

For the compound `OCCn1cc(CNc2ncnc3c2ncn3[C@@H]2O[C@H](CO)[C@@H](O)[C@H]2O)nn1`, in the series on Enterovirus A71 [3], the pEC50 is less than 3.50. Besides, the CC50 in series [8] turned out to be 317 µM.

On to `C[C@H]1O[C@@H](n2cnc3c(NCc4ccccc4)ncnc32)[C@H](O)[C@@H]1O`, for which the pEC50 in the series with Enterovirus A71 [3] was 5.17. The selectivity ratio in series [7] was more than 54. Also, the cytotoxic concentration (CC50) in [8] was more than 366 µM.

Take `OC[C@H]1O[C@@H](n2cnc3c(NCc4cn(COCc5ccccc5)nn4)ncnc32)[C@H](O)[C@@H]1O`: the pEC50 in the series on Enterovirus A71 [3] was less than 3.94. Also, the CC50 in [8] is 116 µM.

Consider `OC[C@H]1O[C@@H](n2cnc3c(NCC#Cc4ccccc4)ncnc32)[C@H](O)[C@@H]1O`, for which, in the series on Enterovirus A71 [3], the pEC50 is 6.24. Moreover, the selectivity ratio in series [7] came to 124. Further, the midpoint of cytotoxicity in [8], the CC50, lay at 72 µM.

As for `OC[C@H]1O[C@@H](n2cnc3c(NC/C=C/c4ccccc4)ncnc32)[C@H](O)[C@@H]1O`, the pEC50 is 6.00 in the series on Enterovirus A71 [1]; 5.66 in the series on Enterovirus A71 [2]; 6.18 with Enterovirus A71 [3]; 5.94 in the series on Enterovirus A71 [4]; 6.42 in the series with Enterovirus A71 [5]; 5.70 in the series with Enterovirus A71 [6]. Also, the pEC50 with Enterovirus A71 [9] was 5.60. In addition, the selectivity ratio in [7] was found to be 645. Also, the CC50 in series [8] stood at 426 µM.

As to `OC[C@H]1O[C@@H](n2cnc3c(NCCOc4ccccc4)ncnc32)[C@H](O)[C@@H]1O`, in the series on Enterovirus A71 [3], the pEC50 is 5.37. In series [7], the selectivity ratio turned out to be 25. The same compound yielded a CC50 in series [8] of 107 µM.

On to `C[C@H]1O[C@@H](n2cnc3c(NCCc4ccccc4)ncnc32)[C@H](O)[C@@H]1O`, for which the pEC50 in the series on Enterovirus A71 [3] was less than 3.55. The same compound had a CC50 in series [8] of 463 µM.

On to `OC[C@H]1O[C@@H](n2cnc3c(NCc4cn(Cc5ccccc5)nn4)ncnc32)[C@H](O)[C@@H]1O`, for which the pEC50 with Enterovirus A71 [3] was less than 3.64. Moreover, the CC50 in [8] is more than 285 µM.

With `CC(C)=CCNc1ncnc2nc[nH]c12`, in the series on Enterovirus A71 [3], the pEC50 was less than 3.49. Besides, the CC50 in series [8] came to 325 µM.

For `c1ccc(CNc2ncnc3nc[nH]c23)cc1` [6-BENZYLAMINOPURINE], the pEC50 with Enterovirus A71 [3] was 6.38. Further, the selectivity ratio in [7] was determined as 1300. Moreover, the midpoint of cytotoxicity in series [8], the CC50, lay at 547 µM.

Take `OC[C@H]1O[C@@H](n2cnc3c(NCc4ccco4)ncnc32)[C@H](O)[C@@H]1O` [KINETIN RIBOSIDE]: the pEC50 in the series on Enterovirus A71 [3] is 5.85. Also, in series [7], the selectivity ratio came to 5.6. This compound also returned a CC50 in series [8] of 7.8 µM.

For the compound `OC[C@H]1O[C@@H](n2cnc3c(NCc4ccccc4)ncnc32)[C@H](O)[C@@H]1O` [N6-BENZYLADENOSINE], the pEC50 with Enterovirus A71 [3] was 6.55. Further, the selectivity ratio in series [7] turned out to be 14. The compound also displayed a CC50 in series [8] of 4 µM.

Regarding `OC[C@H]1O[C@@H](n2cnc3c(Nc4ccccc4)ncnc32)[C@H](O)[C@@H]1O` [N6-PHENYLADENOSINE], the pEC50 in the series with Enterovirus A71 [3] was less than 3.54. In [8], it took 372 µM to reach half-maximal cytotoxicity (CC50).

Regarding `CC(C)=CCNc1ncnc2c1ncn2[C@@H]1O[C@H](CO)[C@@H](O)[C@H]1O` [RIBOPRINE], in the series on Enterovirus A71 [3], the pEC50 was 6.00. Besides, the selectivity ratio in [7] was 5.8. In [8], it took 5.8 µM to reach half-maximal cytotoxicity (CC50).

These data come from ChEMBL document CHEMBL3792372, “Modification of the length and structure of the linker of N(6)-benzyladenosine modulates its selective antiviral activity against enterovirus 71” (Eur J Med Chem, 2016).
